Earlier results on one compound are cited in patent EP0534246A2, “Benzylamine derivatives and medicines with antiarrhythmic activity containing them” (BASF Aktiengesellschaft, priority 1991, dated 1993).

In this data set the target is K^+ATP-Kanal (Homo sapiens, UniProt Q14654). The settings on record: J. Mol. Cell. Cardiol. 21, Suppl. 2, S. 9, 1989.
Chain of K^+ATP-Kanal (Q14654 whole entry): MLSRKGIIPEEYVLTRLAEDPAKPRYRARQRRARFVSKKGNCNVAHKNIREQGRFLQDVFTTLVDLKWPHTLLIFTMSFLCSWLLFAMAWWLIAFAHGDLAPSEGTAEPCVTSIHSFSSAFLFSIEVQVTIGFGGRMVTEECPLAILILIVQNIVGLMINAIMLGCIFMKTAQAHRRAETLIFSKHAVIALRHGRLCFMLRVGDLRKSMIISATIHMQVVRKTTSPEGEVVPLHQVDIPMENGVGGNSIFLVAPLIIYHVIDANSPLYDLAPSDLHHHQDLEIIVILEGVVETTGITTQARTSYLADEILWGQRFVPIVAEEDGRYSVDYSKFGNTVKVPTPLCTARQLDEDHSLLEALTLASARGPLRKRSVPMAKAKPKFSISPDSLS
Chain of K^+ATP-Kanal (O60706 whole entry partner): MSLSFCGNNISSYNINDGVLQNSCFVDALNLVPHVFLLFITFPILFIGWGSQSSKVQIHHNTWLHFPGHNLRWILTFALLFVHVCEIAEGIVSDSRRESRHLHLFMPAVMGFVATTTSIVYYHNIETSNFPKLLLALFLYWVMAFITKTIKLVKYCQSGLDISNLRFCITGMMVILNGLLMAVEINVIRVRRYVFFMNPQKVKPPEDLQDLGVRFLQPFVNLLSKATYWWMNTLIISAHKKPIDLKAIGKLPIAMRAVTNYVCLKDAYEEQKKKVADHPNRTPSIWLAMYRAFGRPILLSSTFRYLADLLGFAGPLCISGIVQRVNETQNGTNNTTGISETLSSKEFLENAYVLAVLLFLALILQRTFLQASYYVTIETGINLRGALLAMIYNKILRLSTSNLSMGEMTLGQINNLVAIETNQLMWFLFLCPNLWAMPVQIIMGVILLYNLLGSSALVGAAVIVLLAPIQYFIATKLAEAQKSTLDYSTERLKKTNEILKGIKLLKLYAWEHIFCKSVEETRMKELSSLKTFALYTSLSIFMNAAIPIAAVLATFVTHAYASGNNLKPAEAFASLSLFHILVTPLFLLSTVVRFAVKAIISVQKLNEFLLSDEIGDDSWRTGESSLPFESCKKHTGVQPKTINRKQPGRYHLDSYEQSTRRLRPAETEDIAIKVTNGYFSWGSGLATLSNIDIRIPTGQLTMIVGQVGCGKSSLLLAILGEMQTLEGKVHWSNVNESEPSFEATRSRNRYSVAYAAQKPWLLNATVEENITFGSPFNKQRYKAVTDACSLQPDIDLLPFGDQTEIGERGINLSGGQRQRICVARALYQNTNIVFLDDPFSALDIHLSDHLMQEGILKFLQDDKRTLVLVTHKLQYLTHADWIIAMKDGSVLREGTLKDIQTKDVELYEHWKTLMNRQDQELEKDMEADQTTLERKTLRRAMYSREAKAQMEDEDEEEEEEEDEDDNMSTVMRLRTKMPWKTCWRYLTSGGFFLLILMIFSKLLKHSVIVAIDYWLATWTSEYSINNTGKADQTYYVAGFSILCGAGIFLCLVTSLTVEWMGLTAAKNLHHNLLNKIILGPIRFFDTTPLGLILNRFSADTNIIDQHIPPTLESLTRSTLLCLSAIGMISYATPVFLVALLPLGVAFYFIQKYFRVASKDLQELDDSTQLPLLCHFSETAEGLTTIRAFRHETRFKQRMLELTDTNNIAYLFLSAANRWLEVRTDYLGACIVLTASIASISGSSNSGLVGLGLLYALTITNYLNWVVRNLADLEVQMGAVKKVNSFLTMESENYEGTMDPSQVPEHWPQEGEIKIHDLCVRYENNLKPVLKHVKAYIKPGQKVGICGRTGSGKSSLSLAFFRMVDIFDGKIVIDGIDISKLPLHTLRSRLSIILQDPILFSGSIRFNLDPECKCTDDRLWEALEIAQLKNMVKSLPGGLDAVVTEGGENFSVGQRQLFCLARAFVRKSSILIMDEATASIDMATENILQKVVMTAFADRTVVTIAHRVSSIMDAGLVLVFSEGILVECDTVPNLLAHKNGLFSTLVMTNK

In the case of `CCCCCC(O)CCCC(=O)O` (stereo not shown) [5-Hydroxydekanoat], the “Konzentration, bei der Wirkung gezeigt wird (Blocker des ATP-abhängigen K+-Kanals)” value is given as “ca. 100 um”.
